Source: patent publication US20240101572A1, “DIHYDROOXADIAZINONE COMPOUND AND PHARMACEUTICAL USE THEREOF” (Japan Tobacco Inc., priority 2022, published 2024)

Tests used:
full-length human PLD2 = full-length human PLD2 (Homo sapiens (Human), UniProt O14939); assay: Evaluation of human PLD2 enzyme inhibitory activity (Amplex Red / choline oxidase fluorescence); format: biochemical; settings: full-length human PLD2 enzyme; read-out: PLD2 IC50
Protocol: A method for measuring human PLD2 enzyme inhibitory activity using an enzyme in which a FLAG-tag is added to the N-terminus of full-length human PLD2 (1-933 amino acids) is shown below.
(§1) DNA fragment in which a FLAG-tag sequence is added to the 5′-end of full-length human PLD2 was amplified by PCR method, using commercially available human PLD2 gene (Promega KK) as a template. The amplified DNA fragment was fused with vector pVL1393 for baculovirus production (Pharmingen) digested with BamHI and EcoRI, using In-Fusion HD Cloning Kit (Takara Bio). The full-length human PLD2-expression plasmid DNA for baculovirus was isolated from Escherichia coli DH5a (TOYOBO) transformed with the obtained In-Fusion reaction product. Next, DNA fragment in which a FLAG-tag sequence is added to the 5′-end of full-length human PLD2 was amplified by PCR method, using the full-length human PLD2-expression plasmid DNA for baculovirus as a template. The amplified DNA fragment was fused with a DNA fragment in which a linker sequence is introduced into pcDNA3.4-TOPO (Life Technologies), using In-Fusion HD Cloning Kit (Takara Bio). The full-length human PLD2-expression plasmid DNA for animal cells was isolated from Escherichia coli DH5a transformed with the obtained In-Fusion reaction product. The base sequence of the full-length human PLD2 cloned into vector was determined by a Dye Terminator method using BigDye Terminator v3.1 Cycle Sequencing Kit (Applied Biosystems). The determined sequence was a sequence in which the FLAG-tag sequence was inserted at the 5′-end of the full-length human PLD2 (GenBank Accession Number: NM 002663).
(§2) Expi293F cells (Life Technologies) were cultured with shaking using Expi293 Expression Medium (Life Technologies) as a medium at 37° C. in the presence of 8% CO2. The gene introduction reagent PEI was prepared by dissolving Polyethylenimine Max (nominally MW 40,000) (Polysciences) in MilliQ water, adjusting the pH of the solution to 7.0 with NaOH to obtain a 1 mg/mL solution, and then filtering the solution through 0.22 μm filter. The full-length human PLD2-expression plasmid DNA for animal cells was transfected into Expi293F cells using PEI, and after 48 hours of shaking culture, the cells were collected and stored at −80° C.
(§3) To the full-length human PLD2-expressed cells was added a Homogenate buffer (20 mmol/L Na-phosphate pH 7.5, 250 mmol/L NaCl, 1 mmol/L MgCl2, 1% β-OG, 0.05 mmol/L DTT+complete EDTA-free (Roche Diagnostics K.K.)), and the cells were lysed by Microfluidizer Processor M-110EH (Mizuho Kogyo Co., Ltd.). The lysate was centrifuged at 10,100×g at 4° C. for 15 minutes, and the supernatant was collected and filtered through 0.45 μm filter. To the centrifuged supernatant was added ANTI-FLAG M2 Affinity Gel (SIGMA-Aldrich) resin equilibrated with a Homogenate buffer, and the mixed solution was stirred at 4° C. for 1 hr or more. The mixed solution was loaded onto Poly-Prep column, and the resin was washed with a Wash buffer (20 mmol/L Na-phosphate pH 7.5, 150 mmol/L NaCl, 1 mmol/L MgCl2, 0.02% Triton, 0.05 mmol/L DTT). A Wash buffer containing 400 μg/mL DYKDDDDK Peptide (Scrum Inc.) was added to the column to elute the protein bound to the resin. The eluted fractions were subjected to SDS-PAGE followed by CBB staining to identify the fractions containing the full-length human PLD2. The eluted fractions of the full-length human PLD2 were collected and concentrated using Amicon Ultra-15 100k (Merck Millipore). The concentrated fractions were collected, flash-frozen in liquid nitrogen and stored at −80° C.
(§4) A DMSO or test substance solution (the DMSO final concentration: 5%) prepared by diluting DMSO or test substance with an Assay buffer (50 mmol/L HEPES pH 7.5, 80 mmol/L KCl, 3 mmol/L EGTA, 3.6 mmol/L MgCl2, 0.01% NP-40, 0.1% BSA), and the solution was added to a 384 well Assay Plate (Black, Polystyrene, Non-Treated, Cat No. 3573, Corning) by 5 μL/well. […]

full-length human PLD1 = full-length human PLD1 (Homo sapiens (Human), UniProt Q13393); assay: Evaluation of human PLD1 enzyme inhibitory activity (Amplex Red / choline oxidase fluorescence); format: biochemical; settings: full-length human PLD1 enzyme; read-out: PLD1 IC50
Sequence of full-length human PLD1 (Q13393 other isoform, or with tags, fused parts or gaps): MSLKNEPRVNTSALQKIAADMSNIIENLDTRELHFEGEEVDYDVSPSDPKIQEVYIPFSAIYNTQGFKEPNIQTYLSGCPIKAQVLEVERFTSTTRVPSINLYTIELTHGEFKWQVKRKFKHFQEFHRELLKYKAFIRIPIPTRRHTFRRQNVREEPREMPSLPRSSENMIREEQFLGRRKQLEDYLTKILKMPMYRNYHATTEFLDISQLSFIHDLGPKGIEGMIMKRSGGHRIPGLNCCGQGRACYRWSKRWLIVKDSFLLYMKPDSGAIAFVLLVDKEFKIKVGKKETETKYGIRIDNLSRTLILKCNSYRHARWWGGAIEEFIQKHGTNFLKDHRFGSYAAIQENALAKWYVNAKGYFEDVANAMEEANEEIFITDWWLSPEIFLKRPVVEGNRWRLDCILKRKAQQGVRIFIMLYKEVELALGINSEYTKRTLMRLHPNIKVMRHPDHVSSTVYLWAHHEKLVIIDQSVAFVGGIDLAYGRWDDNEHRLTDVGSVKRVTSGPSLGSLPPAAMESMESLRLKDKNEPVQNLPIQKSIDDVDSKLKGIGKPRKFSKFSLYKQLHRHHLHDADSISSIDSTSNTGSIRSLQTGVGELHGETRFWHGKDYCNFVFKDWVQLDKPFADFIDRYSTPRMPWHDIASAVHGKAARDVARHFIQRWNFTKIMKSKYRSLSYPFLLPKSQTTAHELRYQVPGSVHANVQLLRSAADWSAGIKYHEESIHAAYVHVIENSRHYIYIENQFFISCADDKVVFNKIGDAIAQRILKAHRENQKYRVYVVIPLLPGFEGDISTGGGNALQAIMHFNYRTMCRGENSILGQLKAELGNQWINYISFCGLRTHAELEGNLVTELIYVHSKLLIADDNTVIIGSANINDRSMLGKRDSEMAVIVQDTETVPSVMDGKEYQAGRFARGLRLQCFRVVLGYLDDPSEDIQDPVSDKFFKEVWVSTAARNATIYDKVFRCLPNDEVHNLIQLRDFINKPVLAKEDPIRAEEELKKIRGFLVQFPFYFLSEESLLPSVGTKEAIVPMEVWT
Protocol: A method for measuring human PLD1 enzyme inhibitory activity using an enzyme in which a FLAG-tag is added to the N-terminus of full-length human PLD1 (1-1036 amino acids) is shown below.
as §1, with “PLD1” for “PLD2”, “PLD1-expression” for “PLD2-expression”, “NM_001130081).” for “NM 002663).”
as §2, with “PLD1-expression” for “PLD2-expression”
as §3, with “PLD1-expressed” for “PLD2-expressed”, “PLD1.” for “PLD2.”, “PLD1” for “PLD2”
as §4

Sequence of full-length human PLD2 (O14939 whole entry, the tested form may be a part): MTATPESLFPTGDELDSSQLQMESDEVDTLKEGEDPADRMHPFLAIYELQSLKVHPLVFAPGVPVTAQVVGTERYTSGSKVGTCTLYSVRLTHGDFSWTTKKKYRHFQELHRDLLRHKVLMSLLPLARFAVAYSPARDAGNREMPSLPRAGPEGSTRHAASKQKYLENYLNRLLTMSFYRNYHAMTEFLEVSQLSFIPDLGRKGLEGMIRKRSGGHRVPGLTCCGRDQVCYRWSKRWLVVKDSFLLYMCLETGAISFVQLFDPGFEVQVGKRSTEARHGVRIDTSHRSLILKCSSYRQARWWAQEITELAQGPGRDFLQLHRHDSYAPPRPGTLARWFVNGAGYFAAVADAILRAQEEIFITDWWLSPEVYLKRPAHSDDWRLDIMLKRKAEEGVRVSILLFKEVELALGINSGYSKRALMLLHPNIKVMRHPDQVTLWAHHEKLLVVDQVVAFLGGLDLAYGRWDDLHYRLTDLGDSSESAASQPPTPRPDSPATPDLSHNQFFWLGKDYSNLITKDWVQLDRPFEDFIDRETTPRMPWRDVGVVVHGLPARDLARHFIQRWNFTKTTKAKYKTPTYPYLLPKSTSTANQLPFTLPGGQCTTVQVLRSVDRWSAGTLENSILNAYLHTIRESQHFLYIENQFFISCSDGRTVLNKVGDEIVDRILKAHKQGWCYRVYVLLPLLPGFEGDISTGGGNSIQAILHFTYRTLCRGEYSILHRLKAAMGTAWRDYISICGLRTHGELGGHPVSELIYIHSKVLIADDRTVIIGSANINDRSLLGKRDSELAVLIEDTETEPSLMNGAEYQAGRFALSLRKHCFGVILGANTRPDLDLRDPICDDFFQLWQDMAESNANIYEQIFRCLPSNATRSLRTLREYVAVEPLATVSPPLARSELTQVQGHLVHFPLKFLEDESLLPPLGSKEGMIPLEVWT

`CNC(=O)C(=O)N[C@@H](C)C[C@H]1CC[C@]2(CC1)OC(=O)NN=C2c1cccc(OC(F)F)c1Br` [Example 306] was tested, and the IC50 (full-length human PLD2) was less than 10 nM and the IC50 (full-length human PLD1) was less than 10 nM.
`C[C@@H](C[C@H]1CC[C@]2(CC1)OC(=O)NN=C2c1ccc(OC(F)(F)F)cc1Br)NC(=O)NC1CC1` [Example 195] gave an IC50 (full-length human PLD2) of 67 nM and an IC50 (full-length human PLD1) of 39 nM.
With `C[C@@H](C[C@H]1CC[C@]2(CC1)OC(=O)NN=C2c1ccc(Br)cc1)NC(=O)c1cc2ccccc2o1` [Example 50] the IC50 (full-length human PLD2) was 51 nM and the IC50 (full-length human PLD1) was 33 nM.
For `CNC(=O)C(=O)N[C@@H](C)C[C@H]1CC[C@]2(CC1)OC(=O)NN=C2c1cc(C)ccc1C` [Example 126], the IC50 (full-length human PLD2) was less than 10 nM and the IC50 (full-length human PLD1) was 13 nM.
`CC(C)S(=O)(=O)c1ccc(C2=NNC(=O)O[C@]23CC[C@@H](C[C@H](C)NC(=O)c2cc(Cl)no2)CC3)c(Br)c1` [Example 67] gave an IC50 (full-length human PLD2) of less than 10 nM and an IC50 (full-length human PLD1) of less than 10 nM.
`CNC(=O)C(=O)N[C@@H](C)CN1CCC2(CC1)OC(=O)NN=C2c1cccc(C(F)(F)F)c1Br` [Example 2-051] was tested, and the IC50 (full-length human PLD2) was less than 10 nM and the IC50 (full-length human PLD1) was 25 nM.
For `CNC(=O)/C=C\C(=O)N[C@@H](C)CN1CCC2(CC1)OC(=O)NN=C2c1cc(C#N)ccc1Br` [Example 2-063], the IC50 (full-length human PLD2) was 106 nM and the IC50 (full-length human PLD1) was 173 nM.
`C[C@@H](CN1CCC2(CC1)OC(=O)NN=C2c1ccc(F)cc1Cl)NC(=O)c1cn(C)nn1` [Example 94] was tested, and the IC50 (full-length human PLD2) was 60 nM and the IC50 (full-length human PLD1) was 68 nM.
With `Cc1cc(C(=O)N[C@@H](C)C[C@H]2CC[C@]3(CC2)OC(=O)NN=C3c2ccccc2OC(F)(F)F)[nH]n1` [Example 110] the IC50 (full-length human PLD2) was 99 nM and the IC50 (full-length human PLD1) was 83 nM.
`Cc1cc(C(=O)N[C@@H](C)CN2CCC3(CC2)OC(=O)NN=C3c2cc(C#N)ccc2Br)[nH]n1` [Example 301] showed an IC50 (full-length human PLD2) of less than 10 nM and an IC50 (full-length human PLD1) of 30 nM.
Compound `CNC(=O)C(=O)NC[C@@H](C)N1CCC2(CC1)OC(=O)NN=C2c1ccc(C#N)cc1Br` [Example 330] has an IC50 (full-length human PLD2) of 26 nM and an IC50 (full-length human PLD1) of 3150 nM.
With `CNC(=O)C(=O)N[C@@H](C)C[C@H]1CC[C@]2(CC1)OC(=O)NN=C2c1cnc(I)cc1C` [Example 172] the IC50 (full-length human PLD2) was 12 nM and the IC50 (full-length human PLD1) was 23 nM.
In the case of `Cc1cc(F)ccc1C1=NNC(=O)O[C@]12CC[C@@H](C[C@H](C)NC(=O)N1CC[C@H](c3ccccc3)C1)CC2` [Example 137], the IC50 (full-length human PLD2) is reported as 1590 nM and the IC50 (full-length human PLD1) is reported as 505 nM.
In the case of `C[C@@H](C[C@H]1CC[C@]2(CC1)OC(=O)NN=C2c1ccc(F)cc1Br)NC(=O)CCS(C)(=O)=O` [Example 43], the IC50 (full-length human PLD2) is reported as 184 nM and the IC50 (full-length human PLD1) is reported as 221 nM.
`C[C@@H](C[C@H]1CC[C@]2(CC1)OC(=O)NN=C2c1ccc(C#N)cc1Br)NC(=O)N1CCn2nccc2C1` [Example 270] showed an IC50 (full-length human PLD2) of less than 10 nM and an IC50 (full-length human PLD1) of 17 nM.
For `C[C@@H](C[C@H]1CC[C@]2(CC1)OC(=O)NN=C2c1cccnc1)NC(=O)c1cc2cc(F)ccc2[nH]1` [Example 15], the IC50 (full-length human PLD2) was less than 10 nM and the IC50 (full-length human PLD1) was 25 nM.
`Cc1cc(C(=O)N[C@@H](C)[C@H](C)N2CCC3(CC2)OC(=O)NN=C3c2ccc(F)cc2Br)[nH]n1` [Example 288] was tested, and the IC50 (full-length human PLD2) was less than 10 nM and the IC50 (full-length human PLD1) was 26 nM.
`CNC(=O)C(=O)N[C@@H](C)C[C@H]1CC[C@]2(CC1)OC(=O)NN=C2c1cnc(C)cc1C` [Example 173] showed an IC50 (full-length human PLD2) of 10 nM and an IC50 (full-length human PLD1) of 29 nM.
`Cc1cc(F)ccc1C1=NNC(=O)O[C@]12CC[C@@H](C[C@H](C)NC(=O)N1Cc3ccccc3C1)CC2` [Example 101] showed an IC50 (full-length human PLD2) of less than 10 nM and an IC50 (full-length human PLD1) of less than 10 nM.
`C[C@@H](C[C@H]1CC[C@]2(CC1)OC(=O)NN=C2c1ccc(F)cc1Br)NC(=O)C1CC1c1ccccc1` (single isomer, unassigned) [Example 39] was tested, and the IC50 (full-length human PLD2) was 24 nM and the IC50 (full-length human PLD1) was 93 nM.
For `CNC(=O)C(=O)N[C@@H](C)C[C@H]1CC[C@]2(CC1)OC(=O)NN=C2c1ccccc1OC(F)(F)F` [Example 105], the IC50 (full-length human PLD2) was 41 nM and the IC50 (full-length human PLD1) was 27 nM.
`C[C@@H](C[C@H]1CC[C@]2(CC1)OC(=O)NN=C2c1ccc(F)cc1C1CC1)NC(=O)c1cc(Cl)no1` [Example 65] was tested, and the IC50 (full-length human PLD2) was less than 10 nM and the IC50 (full-length human PLD1) was less than 10 nM.
`Cc1cc(C(=O)N[C@@H](C)[C@@H](C)N2CCC3(CC2)OC(=O)NN=C3c2ccc(F)cc2Br)[nH]n1` [Example 290] showed an IC50 (full-length human PLD2) of 46 nM and an IC50 (full-length human PLD1) of 122 nM.
Work on `CNC(=O)C(=O)N[C@@H](C)C[C@H]1CC[C@]2(CC1)OC(=O)NN=C2c1nccn1CC1CC1` [Example 82] yielded an IC50 (full-length human PLD2) of 358 nM and an IC50 (full-length human PLD1) of 421 nM.
Work on `CNC(=O)C(=O)N[C@@H](C)C[C@H]1CC[C@]2(CC1)OC(=O)NN=C2c1cc(C#N)ccc1Br` [Example 198, N^1—((S)-1-(cis-5-(2-bromo-5-cyanophenyl)-2-oxo-1-oxa-3,4-diazaspiro[5.5]undec-4-en-9-yl)propan-2-yl)-N^2-methyloxamide] yielded an IC50 (full-length human PLD2) of less than 10 nM and an IC50 (full-length human PLD1) of 11 nM.
`C[C@@H](C[C@H]1CC[C@]2(CC1)OC(=O)NN=C2c1ccc(OCC(C)(C)O)cc1Br)NC(=O)c1cc2ccccc2o1` [Example 132] showed an IC50 (full-length human PLD2) of less than 10 nM and an IC50 (full-length human PLD1) of 14 nM.
